Source: patent US20260285831A1, “LACTAM DERIVATIVES FOR INHIBITING NLRP3 AND USES THEREOF” (Ventus Therapeutics U.S., Inc., priority 2023, published 2026)
Like-named read-outs stand apart in the source and are kept apart here.

Target: T1, human NLRP3 (Homo sapiens, UniProt Q96P20)
T1 construct: Human whole blood is drawn from healthy volunteers after obtaining written informed consent; from tissue; host or cells: human whole blood from healthy volunteers (heparin lithium tubes)
Assay: Human whole blood (hWB) NLRP3 assay (IL-1β release after LPS priming and ATP activation)
Type: cell-based
Conditions: for IC50: human whole blood; for hWB NLRP3 inhibitory activity compared to the (S)-isomer: isomer comparison, in words; for fold improvement in activity compared to Compound 3 (hWB IL-1β IC50): additional ring N atom versus Compound 3 with lactam ring N as sole N ring atom, Table E
Procedure: Human Whole Blood (hWB) NLRP3 Assay
Human whole blood is drawn from healthy volunteers after obtaining written informed consent. Heparin lithium coated tubes are used to collect blood from volunteers. Blood samples are distributed on 96 well plates using 90 μl per well.
Priming procedure: Priming is performed by adding 5 μl of LPS (026:B6; Sigma L-2654) at a final concentration of 1 μg/ml for 4.5 hours in a humidified incubator with 37° C., 5% CO2. Thirty minutes prior to NLRP3 activation, 5 μl of a 20× compound solution or vehicle (2% dimethylsulfoxide (DMSO)) is added to each well and plates were incubated on a shaker (450 rpm) in a humidified incubator with 37° C., 5% CO2.
Alternative priming procedure: Thirty minutes prior to LPS priming, 5 μl of a 20× compound solution or vehicle (2% dimethylsulfoxide (DMSO)) is added to each well and plates were incubated on a shaker (450 rpm) in a humidified incubator with 37° C., 5% CO2. Priming is performed by adding 5 μl of LPS (026:B6; Sigma L-2654) at a final concentration of 1 μg/ml for 5 hours in a humidified incubator with 37° C., 5% CO2.
Activation is then performed by adding 3.3 μl of a 31×ATP solution per well. At the end of the 30 minutes stimulation, the plates are centrifuged (800 g, 10 min, room temperature) and the plasma from each well is frozen at −80° C. […] levels in the supernatant were analyzed using a mesoscale discovery assay (MSD K151TUK) according to the manufacturers' instructions.
There is no detectable difference in assay IC50 results using the priming procedure versus the alternative priming procedure.
Data provided in Table C, below. hWB […] Assay: A represents an IC50 value <0.3 μM; B represents an IC50 value ≥0.3 μM and <0.5 μM; C represents an IC50 value ≥0.5 μM and <1.0 μM; D represents an IC50 value ≥1.0 μM and <10 μM; E represents an IC50 value ≥10 μM. Dashed (--) lines indicate no data available.

[1] = LPS 1 μg/ml priming, ATP activation, Table C, class symbols, read-out: hWB IL-1β IC50
[2] = numeric values of Tables D and E, read-out: hWB IL-1β IC50

T1 sequence (Q96P20 whole entry): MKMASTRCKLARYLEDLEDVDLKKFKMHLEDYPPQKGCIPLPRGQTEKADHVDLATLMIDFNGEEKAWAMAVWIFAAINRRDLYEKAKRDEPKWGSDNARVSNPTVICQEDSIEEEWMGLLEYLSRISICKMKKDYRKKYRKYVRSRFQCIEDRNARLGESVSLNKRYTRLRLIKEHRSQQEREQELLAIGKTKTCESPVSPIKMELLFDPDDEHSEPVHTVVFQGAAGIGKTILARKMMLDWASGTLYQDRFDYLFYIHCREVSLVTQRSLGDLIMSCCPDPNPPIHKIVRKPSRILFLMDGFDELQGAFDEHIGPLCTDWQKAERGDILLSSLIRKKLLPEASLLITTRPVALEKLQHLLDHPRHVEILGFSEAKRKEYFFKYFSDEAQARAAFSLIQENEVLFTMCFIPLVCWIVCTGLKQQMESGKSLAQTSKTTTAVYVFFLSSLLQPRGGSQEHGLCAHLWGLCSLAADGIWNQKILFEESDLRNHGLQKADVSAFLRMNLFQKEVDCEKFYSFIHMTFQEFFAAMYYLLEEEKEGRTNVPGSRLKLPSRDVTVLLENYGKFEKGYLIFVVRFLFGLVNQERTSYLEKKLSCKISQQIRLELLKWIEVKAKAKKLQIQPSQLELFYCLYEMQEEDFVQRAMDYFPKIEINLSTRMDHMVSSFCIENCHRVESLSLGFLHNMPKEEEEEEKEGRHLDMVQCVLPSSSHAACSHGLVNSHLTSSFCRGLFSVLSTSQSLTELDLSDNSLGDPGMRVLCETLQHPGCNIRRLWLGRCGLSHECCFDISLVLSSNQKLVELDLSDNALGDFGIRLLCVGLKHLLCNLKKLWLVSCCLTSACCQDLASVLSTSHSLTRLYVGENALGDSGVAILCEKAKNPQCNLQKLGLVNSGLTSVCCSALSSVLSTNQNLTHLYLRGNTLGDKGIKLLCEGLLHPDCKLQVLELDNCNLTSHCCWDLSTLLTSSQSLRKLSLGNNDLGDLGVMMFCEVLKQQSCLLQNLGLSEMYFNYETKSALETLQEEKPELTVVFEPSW

| SMILES | IC50 [1] [µM] | other results |
| --- | --- | --- |
| Cc1ccn(CCCC(=O)O)c(=O)c1N1C(=O)C(C)(C)c2c(F)c(C3CC3)cc(F)c21 (single isomer, unassigned) [Compound 4A*, (Sa)-4-(3-(5-cyclopropyl-4,7-difluoro-3,3-dimethyl-2-oxoindolin-1-yl)-4-methyl-2-oxopyridin-1(2H)-yl)butanoic acid] | ≥ 10 |  |
| CC1(C)C(=O)N(c2nccn([C@H]3CCC[C@@H]3CC(=O)O)c2=O)c2c(F)cc(C3CC3)c(F)c21 (single isomer, unassigned) [Compound 20C*] | 0.5 to 1 |  |
| CC1(C)C(=O)N(c2nccn([C@@H]3CCC[C@H]3CC(=O)O)c2=O)c2c(F)cc(C3CC3)c(F)c21 (single isomer, unassigned) [Compound 20D*] | 0.5 to 1 |  |
| C[C@@H](CCC(=O)O)N1CC[C@@H](N2C(=O)C(C)(C)c3c(F)c(C4CC4)cc(F)c32)C1=O (single isomer, unassigned) [Compound 24A*] | 0.3 to 0.5 |  |
| C[C@@H](CCC(=O)O)N1CC[C@H](N2C(=O)C(C)(C)c3c(F)c(C4CC4)cc(F)c32)C1=O (single isomer, unassigned) [Compound 24C*] | ≥ 10 |  |
| C[C@H](CCC(=O)O)N1CC[C@@H](N2C(=O)C(C)(C)c3c(F)c(C4CC4)cc(F)c32)C1=O (single isomer, unassigned) [Compound 24D*] | 1 to 10 |  |
| CC1(C)C(=O)N([C@@H]2CC(C)(C)N(CCCC(=O)O)C2=O)c2c(F)cc(C3CC3)c(F)c21 (single isomer, unassigned) [Compound 25A] | ≥ 10 |  |
| CC1(C)C(=O)N([C@H]2CC(C)(C)N(CCCC(=O)O)C2=O)c2c(F)cc(C3CC3)c(F)c21 (single isomer, unassigned) [Compound 25B] | ≥ 10 |  |
| C[C@@H](CC(=O)O)CN1CC[C@@H](N2C(=O)C(C)(C)c3c(F)c(C4CC4)cc(F)c32)C1=O (single isomer, unassigned) [Compound 26A*] | 0.3 to 0.5 |  |
| C[C@H](CC(=O)O)CN1CC[C@H](N2C(=O)C(C)(C)c3c(F)c(C4CC4)cc(F)c32)C1=O (single isomer, unassigned) [Compound 26D*] | ≥ 10 |  |
| CC1(C)C(=O)N([C@@H]2CCN(CCCC(=O)O)C2=O)c2ccc(C3CC3)c(F)c21 (stereo in doubt) [Compound 18A*, (R)-4-(3-(5-cyclopropyl-4-fluoro-3,3-dimethyl-2-oxoindolin-1-yl)-2-oxopyrrolidin-1-yl)butanoic acid] | 1 to 10 | fold more active than 18B* (hWB IL-1β IC50) (R-isomer versus S-isomer 18B*, Table D): > 147 fold; IC50 [2]: 3.4 µM |
| CC1(C)C(=O)N([C@H]2CCN(CCCC(=O)O)C2=O)c2ccc(C3CC3)c(F)c21 (stereo in doubt) [Compound 18B*, (S)-4-(3-(5-cyclopropyl-4-fluoro-3,3-dimethyl-2-oxoindolin-1-yl)-2-oxopyrrolidin-1-yl)butanoic acid] | ≥ 10 | IC50 (class symbol printed beside the numeric value in Tables D and E, read-out: hWB IL-1β IC50 activity class): ≥ 10 µM; IC50 [2]: > 500 µM |
| CC1(C)C(=O)N([C@@H]2CCN(CCCC(=O)O)C2=O)c2c(F)cc(C(F)(F)F)c(F)c21 (stereo in doubt) [Compound 19A*, (R)-4-(3-(4,7-difluoro-3,3-dimethyl-2-oxo-5-(trifluoromethyl)indolin-1-yl)-2-oxopyrrolidin-1-yl)butanoic acid] | < 0.3 | hWB NLRP3 inhibitory activity compared to the (S)-isomer: more active isomer |
| CC1(C)C(=O)N([C@@H]2CCN(CCCC(=O)O)C2=O)c2c(F)cc(C3CC3)cc21 (stereo in doubt) [Compound 22A*, (R)-4-(3-(5-cyclopropyl-7-fluoro-3,3-dimethyl-2-oxoindolin-1-yl)-2-oxopyrrolidin-1-yl)butanoic acid] | < 0.3 | hWB NLRP3 inhibitory activity compared to the (S)-isomer: more active isomer |
| CC1(C)C(=O)N([C@@H]2CCN(CCCC(=O)O)C2=O)c2c(F)cc(Cl)c(F)c21 (stereo in doubt) [Compound 23A, (R)-4-(3-(5-chloro-4,7-difluoro-3,3-dimethyl-2-oxoindolin-1-yl)-2-oxopyrrolidin-1-yl)butanoic acid] | 1 to 10 |  |
| CC1(C)C(=O)N(c2cccn(CCCC(=O)O)c2=O)c2c(F)cc(Br)cc21 [Compound 1, 4-(3-(5-bromo-7-fluoro-3,3-dimethyl-2-oxoindolin-1-yl)-2-oxopyridin-1(2H)-yl)butanoic acid] | 1 to 10 |  |
| CC1(C)C(=O)N(c2cccn(CCCC(=O)O)c2=O)c2c(F)cc(C3CC3)cc21 [Compound 2, 4-(3-(5-cyclopropyl-7-fluoro-3,3-dimethyl-2-oxoindolin-1-yl)-2-oxopyridin-1(2H)-yl)butanoic acid] | 1 to 10 |  |
| CC1(C)C(=O)N(c2cccn(CCCC(=O)O)c2=O)c2c(F)cc(C3CC3)c(F)c21 [Compound 3, 4-(3-(5-cyclopropyl-4,7-difluoro-3,3-dimethyl-2-oxoindolin-1-yl)-2-oxopyridin-1(2H)-yl)butanoic acid] | 1 to 10 | IC50 [2]: 1.9 µM |
| Cc1cc(N2C(=O)C(C)(C)c3c(F)c(C4CC4)cc(F)c32)c(=O)n(CCCC(=O)O)c1 [Compound 5, 4-(3-(5-cyclopropyl-4,7-difluoro-3,3-dimethyl-2-oxoindolin-1-yl)-5-methyl-2-oxopyridin-1(2H)-yl)butanoic acid] | 1 to 10 |  |
| Cc1ccc(N2C(=O)C(C)(C)c3c(F)c(C4CC4)cc(F)c32)c(=O)n1CCCC(=O)O [Compound 6, 4-(3-(5-cyclopropyl-4,7-difluoro-3,3-dimethyl-2-oxoindolin-1-yl)-6-methyl-2-oxopyridin-1(2H)-yl)butanoic acid] | 1 to 10 |  |
| CC1(C)C(=O)N(c2cccn(CCCC(=O)O)c2=O)c2c(O)cc(Cl)cc21 [Compound 7, 4-(3-(5-chloro-7-hydroxy-3,3-dimethyl-2-oxoindolin-1-yl)-2-oxopyridin-1(2H)-yl)butanoic acid] | 1 to 10 |  |
| CC1(C)C(=O)N(c2cncn(CCCC(=O)O)c2=O)c2c(F)cc(C3CC3)c(F)c21 [Compound 8, 4-(5-(5-cyclopropyl-4,7-difluoro-3,3-dimethyl-2-oxoindolin-1-yl)-6-oxopyrimidin-1(6H)-yl)butanoic acid] | 0.3 to 0.5 | fold improvement in activity compared to Compound 3 (hWB IL-1β IC50): 3-5 fold; IC50 [2]: 0.47 µM |
| CC1(C)C(=O)N(c2cc3ccccc3n(CCCC(=O)O)c2=O)c2c(F)cc(C3CC3)c(F)c21 [Compound 9, 4-(3-(5-cyclopropyl-4,7-difluoro-3,3-dimethyl-2-oxoindolin-1-yl)-2-oxoquinolin-1(2H)-yl)butanoic acid] | 1 to 10 |  |
| CC1(C)C(=O)N(c2nccn(CCCC(=O)O)c2=O)c2c(F)cc(C3CC3)c(F)c21 [Compound 10, 4-(3-(5-cyclopropyl-4,7-difluoro-3,3-dimethyl-2-oxoindolin-1-yl)-2-oxopyrazin-1(2H)-yl)butanoic acid] | 0.3 to 0.5 | fold improvement in activity compared to Compound 3 (hWB IL-1β IC50): 3-5 fold; IC50 [2]: 0.39 µM |
| CC1(C)C(=O)N(c2ccnn(CCCC(=O)O)c2=O)c2c(F)cc(C3CC3)c(F)c21 [Compound 11, 4-(5-(5-cyclopropyl-4,7-difluoro-3,3-dimethyl-2-oxoindolin-1-yl)-6-oxopyridazin-1(6H)-yl)butanoic acid] | 0.5 to 1 | fold improvement in activity compared to Compound 3 (hWB IL-1β IC50): 3-5 fold; IC50 [2]: 0.61 µM |
| CC1(C)C(=O)N(c2cc(C(F)(F)F)cn(CCCC(=O)O)c2=O)c2c(F)cc(C3CC3)c(F)c21 [Compound 12, 4-(3-(5-cyclopropyl-4,7-difluoro-3,3-dimethyl-2-oxoindolin-1-yl)-2-oxo-5-(trifluoromethyl)pyridin-1(2H)-yl)butanoic acid] | 1 to 10 |  |
